What was measured:
[1] = target: Mitogen-activated protein kinase kinase kinase kinase 4 (Homo sapiens, UniProt O95819); assay: Selectivity interaction (Kinase panel (literature)) EUB0001199aCl MAP4K4; conditions: at 1 µM
[2] = target: T1, Mitogen-activated protein kinase 1 (Homo sapiens, UniProt P28482); assay: Selectivity interaction (Kinase panel (literature)) EUB0001199aCl MAPK1; conditions: at 1 µM
[3] = target: Calcium/calmodulin-dependent protein kinase type II subunit gamma (Homo sapiens) (UniProt Q13555); assay: Selectivity interaction (KinomeScan (DiscoverX)) EUB0000666a CAMK2G; conditions: at 10 µM
[4] = target: Serine/threonine-protein kinase B-raf (Homo sapiens) (UniProt P15056); assay: Selectivity interaction (Kinase panel (Eurofins)) EUB0001564a BRAF; conditions: at 1 µM
[5] = target: Protein polybromo-1 (Homo sapiens) (UniProt Q86U86); assay: Selectivity interaction (Bromodomain panel (DSF asssay)) EUB0000270b PBRM1
[6] = target: T2, Phosphatidylinositol 5-phosphate 4-kinase type-2 gamma (Homo sapiens) (UniProt Q8TBX8); assay: Selectivity interaction (ActivX KiNativ screen (kinase selectivity in THP-1 cell lysates)) EUB0000639a PIP4K2C; assay type: subcellular; conditions: lysate, at 0.2 µM
T2 sequence (whole entry): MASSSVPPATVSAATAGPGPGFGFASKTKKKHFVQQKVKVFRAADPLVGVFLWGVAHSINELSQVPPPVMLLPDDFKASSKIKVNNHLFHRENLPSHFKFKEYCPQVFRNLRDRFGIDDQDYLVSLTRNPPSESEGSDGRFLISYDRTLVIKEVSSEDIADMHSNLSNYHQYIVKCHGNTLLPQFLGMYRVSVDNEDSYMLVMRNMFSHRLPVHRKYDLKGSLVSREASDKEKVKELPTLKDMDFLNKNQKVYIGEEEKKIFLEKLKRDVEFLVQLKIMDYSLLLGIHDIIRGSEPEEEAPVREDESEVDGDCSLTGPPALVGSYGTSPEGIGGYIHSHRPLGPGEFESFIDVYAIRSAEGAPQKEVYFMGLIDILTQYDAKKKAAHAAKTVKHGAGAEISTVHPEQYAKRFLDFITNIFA

[7] = target: T3, Serine/threonine-protein kinase Nek3 (Homo sapiens) (UniProt P51956); assay: Selectivity interaction (KinomeScan (DiscoverX)) EUB0000595a NEK3; conditions: at 10 µM
T3 sequence (whole entry): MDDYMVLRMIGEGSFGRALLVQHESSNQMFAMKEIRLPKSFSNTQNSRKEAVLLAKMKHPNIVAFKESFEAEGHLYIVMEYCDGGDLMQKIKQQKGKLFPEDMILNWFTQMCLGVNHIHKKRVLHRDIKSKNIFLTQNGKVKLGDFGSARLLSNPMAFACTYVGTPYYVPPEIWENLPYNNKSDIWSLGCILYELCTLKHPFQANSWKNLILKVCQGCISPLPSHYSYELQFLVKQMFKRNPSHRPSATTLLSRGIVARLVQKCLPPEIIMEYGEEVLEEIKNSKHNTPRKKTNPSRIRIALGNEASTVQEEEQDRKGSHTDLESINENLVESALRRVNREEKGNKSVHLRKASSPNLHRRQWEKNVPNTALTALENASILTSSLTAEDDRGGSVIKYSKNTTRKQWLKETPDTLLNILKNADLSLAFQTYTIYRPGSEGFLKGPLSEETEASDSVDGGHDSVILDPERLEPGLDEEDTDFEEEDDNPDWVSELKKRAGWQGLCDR

[8] = target: Tyrosine-protein kinase HCK (Homo sapiens) (UniProt P08631); assay: Selectivity interaction (Kinase screening (Nanosyn)) EUB0000604a HCK
[9] = target: Serine/threonine-protein kinase mTOR (Homo sapiens, UniProt P42345); assay: Selectivity interaction (KinomeScan (DiscoverX)) EUB0000045b MTOR
[10] = target: Receptor tyrosine-protein kinase erbB-2 (Homo sapiens, UniProt P04626); assay: Selectivity interaction (KinomeScan (DiscoverX)) EUB0000618a ERBB2; conditions: at 10 µM
Ephrin type-A receptor 4 = Ephrin type-A receptor 4 (Homo sapiens, UniProt P54764); assay: Selectivity interaction (KinomeScan (DiscoverX)) EUB0001619a EPHA4; conditions: at 1 µM
[11] = target: Tyrosine-protein kinase Fyn (Homo sapiens) (UniProt P06241); assay: Selectivity interaction (Upstate Kinase Profiler service (Millipore)) EUB0000056c FYN; conditions: at 1 µM
[12] = target: T4, Tyrosine-protein kinase TXK (Homo sapiens) (UniProt P42681); assay: Selectivity interaction (KinomeScan (DiscoverX)) EUB0000655a TXK; conditions: at 10 µM
T4 sequence (whole entry): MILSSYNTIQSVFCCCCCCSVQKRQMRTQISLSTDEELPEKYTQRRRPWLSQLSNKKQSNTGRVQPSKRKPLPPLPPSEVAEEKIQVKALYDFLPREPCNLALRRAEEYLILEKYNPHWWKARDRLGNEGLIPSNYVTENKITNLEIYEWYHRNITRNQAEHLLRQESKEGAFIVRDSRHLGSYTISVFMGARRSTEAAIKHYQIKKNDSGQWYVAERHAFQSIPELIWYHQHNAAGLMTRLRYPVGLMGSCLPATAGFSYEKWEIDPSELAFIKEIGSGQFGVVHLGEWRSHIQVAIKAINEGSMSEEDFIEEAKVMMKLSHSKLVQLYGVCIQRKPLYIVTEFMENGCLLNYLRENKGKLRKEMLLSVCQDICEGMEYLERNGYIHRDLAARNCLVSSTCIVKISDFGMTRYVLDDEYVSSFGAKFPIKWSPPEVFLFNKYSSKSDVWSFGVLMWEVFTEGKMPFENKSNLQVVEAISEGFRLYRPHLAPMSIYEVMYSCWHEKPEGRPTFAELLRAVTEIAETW

[13] = target: T1, Mitogen-activated protein kinase 1; assay: Selectivity interaction (KinomeScan (DiscoverX)) EUB0000607a MAPK1; conditions: at 10 µM
[14] = target: T5, RNA 5'-monophosphate methyltransferase (Homo sapiens) (UniProt Q7Z5W3); assay: Selectivity interaction (Methyltransferase screen (radiometric assays, panel of 8 PRMTs, 21 protein lysine methyltransferases, 3 DNA methyltransferases, and one RNA methyltransferase)) EUB0000271b BCDIN3D
T5 sequence (whole entry): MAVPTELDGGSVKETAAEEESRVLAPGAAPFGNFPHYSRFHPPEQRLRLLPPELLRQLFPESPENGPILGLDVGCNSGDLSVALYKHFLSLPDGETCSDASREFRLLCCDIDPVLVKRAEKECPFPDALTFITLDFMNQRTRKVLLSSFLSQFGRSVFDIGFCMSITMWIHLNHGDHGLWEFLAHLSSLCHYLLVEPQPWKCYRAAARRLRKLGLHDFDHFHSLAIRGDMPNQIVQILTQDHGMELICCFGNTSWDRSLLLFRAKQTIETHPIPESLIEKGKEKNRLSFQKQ

T1 sequence (P28482 whole entry): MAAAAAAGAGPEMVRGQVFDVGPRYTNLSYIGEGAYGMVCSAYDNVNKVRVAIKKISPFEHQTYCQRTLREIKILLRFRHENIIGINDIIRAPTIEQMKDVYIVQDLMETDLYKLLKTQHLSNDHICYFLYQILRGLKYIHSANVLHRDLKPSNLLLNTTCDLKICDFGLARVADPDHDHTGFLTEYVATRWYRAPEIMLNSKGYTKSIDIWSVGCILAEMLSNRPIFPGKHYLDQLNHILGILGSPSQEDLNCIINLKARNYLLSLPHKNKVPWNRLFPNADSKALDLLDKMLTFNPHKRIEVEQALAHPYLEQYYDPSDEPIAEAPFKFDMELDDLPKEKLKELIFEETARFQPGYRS
Sequence of Ephrin type-A receptor 4 (P54764 whole entry): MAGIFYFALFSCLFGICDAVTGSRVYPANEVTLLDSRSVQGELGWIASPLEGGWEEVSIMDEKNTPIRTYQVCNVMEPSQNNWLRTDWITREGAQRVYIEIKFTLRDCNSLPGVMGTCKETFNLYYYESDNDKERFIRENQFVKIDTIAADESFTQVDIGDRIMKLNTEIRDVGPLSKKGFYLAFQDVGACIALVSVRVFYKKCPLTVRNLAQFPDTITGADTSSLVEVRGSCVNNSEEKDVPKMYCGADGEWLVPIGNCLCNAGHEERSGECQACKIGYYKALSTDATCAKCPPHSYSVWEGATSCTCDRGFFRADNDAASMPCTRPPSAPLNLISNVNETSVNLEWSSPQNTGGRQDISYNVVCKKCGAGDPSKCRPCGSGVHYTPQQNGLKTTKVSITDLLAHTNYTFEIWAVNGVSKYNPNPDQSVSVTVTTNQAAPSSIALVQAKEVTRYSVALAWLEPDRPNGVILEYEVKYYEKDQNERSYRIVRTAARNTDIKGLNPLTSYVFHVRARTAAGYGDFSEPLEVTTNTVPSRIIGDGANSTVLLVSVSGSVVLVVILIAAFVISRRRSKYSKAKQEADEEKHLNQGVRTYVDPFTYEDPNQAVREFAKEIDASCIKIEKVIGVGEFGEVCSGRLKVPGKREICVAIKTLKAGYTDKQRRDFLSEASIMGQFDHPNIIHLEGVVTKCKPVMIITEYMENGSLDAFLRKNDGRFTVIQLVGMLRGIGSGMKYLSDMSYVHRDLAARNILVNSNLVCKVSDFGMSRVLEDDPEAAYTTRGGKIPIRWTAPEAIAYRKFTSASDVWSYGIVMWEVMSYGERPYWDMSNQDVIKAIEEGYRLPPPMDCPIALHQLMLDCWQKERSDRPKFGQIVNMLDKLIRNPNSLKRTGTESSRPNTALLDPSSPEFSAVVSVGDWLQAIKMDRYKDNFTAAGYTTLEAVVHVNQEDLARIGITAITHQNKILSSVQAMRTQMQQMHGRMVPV
Sequence of Tyrosine-protein kinase HCK (Homo sapiens) (P08631 2-526 limits assumed): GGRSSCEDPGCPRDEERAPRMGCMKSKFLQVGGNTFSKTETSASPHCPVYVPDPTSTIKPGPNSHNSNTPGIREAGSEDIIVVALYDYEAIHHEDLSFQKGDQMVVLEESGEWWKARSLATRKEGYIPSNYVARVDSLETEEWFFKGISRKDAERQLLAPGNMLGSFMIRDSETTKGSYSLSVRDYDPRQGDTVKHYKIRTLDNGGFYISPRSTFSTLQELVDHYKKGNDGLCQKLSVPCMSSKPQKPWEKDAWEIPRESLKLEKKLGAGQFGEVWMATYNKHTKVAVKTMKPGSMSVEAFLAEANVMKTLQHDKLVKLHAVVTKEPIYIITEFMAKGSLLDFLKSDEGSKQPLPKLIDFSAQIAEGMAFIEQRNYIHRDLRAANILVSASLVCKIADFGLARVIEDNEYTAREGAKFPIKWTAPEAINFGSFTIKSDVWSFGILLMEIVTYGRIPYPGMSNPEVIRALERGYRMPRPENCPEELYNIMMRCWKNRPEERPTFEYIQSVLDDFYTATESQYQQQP
Sequence of Protein polybromo-1 (Homo sapiens) (Q86U86 whole entry): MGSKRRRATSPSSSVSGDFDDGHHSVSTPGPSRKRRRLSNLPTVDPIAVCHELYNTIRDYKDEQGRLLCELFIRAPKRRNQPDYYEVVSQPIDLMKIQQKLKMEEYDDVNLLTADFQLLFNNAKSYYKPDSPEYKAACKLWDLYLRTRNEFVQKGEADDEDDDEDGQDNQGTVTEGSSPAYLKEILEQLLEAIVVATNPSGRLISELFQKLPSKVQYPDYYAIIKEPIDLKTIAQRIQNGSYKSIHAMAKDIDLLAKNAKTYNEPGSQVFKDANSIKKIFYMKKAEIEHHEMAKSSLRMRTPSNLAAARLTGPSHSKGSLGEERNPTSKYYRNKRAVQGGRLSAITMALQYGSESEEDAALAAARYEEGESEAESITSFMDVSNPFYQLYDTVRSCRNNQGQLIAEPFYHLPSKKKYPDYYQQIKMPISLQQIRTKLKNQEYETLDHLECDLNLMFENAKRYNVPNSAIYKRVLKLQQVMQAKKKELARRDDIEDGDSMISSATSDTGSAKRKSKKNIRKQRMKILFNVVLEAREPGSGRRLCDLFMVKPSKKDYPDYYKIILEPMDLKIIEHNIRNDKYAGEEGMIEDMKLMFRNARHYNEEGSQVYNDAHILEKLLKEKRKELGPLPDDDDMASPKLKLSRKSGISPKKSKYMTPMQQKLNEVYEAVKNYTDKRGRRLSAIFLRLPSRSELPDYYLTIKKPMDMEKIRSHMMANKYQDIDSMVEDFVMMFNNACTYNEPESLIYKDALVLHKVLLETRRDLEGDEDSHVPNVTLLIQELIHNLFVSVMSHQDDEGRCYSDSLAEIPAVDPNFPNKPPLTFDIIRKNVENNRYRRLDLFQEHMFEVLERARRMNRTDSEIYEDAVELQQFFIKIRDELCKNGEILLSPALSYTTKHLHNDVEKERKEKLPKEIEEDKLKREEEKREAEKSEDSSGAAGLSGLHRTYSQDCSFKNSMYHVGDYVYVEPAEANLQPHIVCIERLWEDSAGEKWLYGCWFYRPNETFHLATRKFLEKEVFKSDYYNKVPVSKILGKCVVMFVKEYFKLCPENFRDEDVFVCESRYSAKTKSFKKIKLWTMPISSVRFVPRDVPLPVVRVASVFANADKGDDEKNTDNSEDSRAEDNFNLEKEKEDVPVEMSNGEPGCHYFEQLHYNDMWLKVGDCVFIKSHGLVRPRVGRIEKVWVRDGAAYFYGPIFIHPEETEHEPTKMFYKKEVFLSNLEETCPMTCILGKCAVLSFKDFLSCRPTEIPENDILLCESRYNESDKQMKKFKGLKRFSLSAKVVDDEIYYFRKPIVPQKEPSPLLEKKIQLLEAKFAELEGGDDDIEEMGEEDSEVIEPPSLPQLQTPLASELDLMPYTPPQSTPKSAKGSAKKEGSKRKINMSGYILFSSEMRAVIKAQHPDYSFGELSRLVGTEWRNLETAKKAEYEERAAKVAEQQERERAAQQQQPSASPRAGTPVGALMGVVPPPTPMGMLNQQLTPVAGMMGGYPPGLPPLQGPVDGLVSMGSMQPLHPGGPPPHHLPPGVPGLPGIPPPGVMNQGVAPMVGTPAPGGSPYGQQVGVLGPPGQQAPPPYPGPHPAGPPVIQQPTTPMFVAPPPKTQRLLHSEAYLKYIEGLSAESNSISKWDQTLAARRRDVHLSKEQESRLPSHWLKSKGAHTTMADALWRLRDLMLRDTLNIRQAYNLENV
Sequence of Tyrosine-protein kinase Fyn (Homo sapiens) (P06241 2-537 limits assumed): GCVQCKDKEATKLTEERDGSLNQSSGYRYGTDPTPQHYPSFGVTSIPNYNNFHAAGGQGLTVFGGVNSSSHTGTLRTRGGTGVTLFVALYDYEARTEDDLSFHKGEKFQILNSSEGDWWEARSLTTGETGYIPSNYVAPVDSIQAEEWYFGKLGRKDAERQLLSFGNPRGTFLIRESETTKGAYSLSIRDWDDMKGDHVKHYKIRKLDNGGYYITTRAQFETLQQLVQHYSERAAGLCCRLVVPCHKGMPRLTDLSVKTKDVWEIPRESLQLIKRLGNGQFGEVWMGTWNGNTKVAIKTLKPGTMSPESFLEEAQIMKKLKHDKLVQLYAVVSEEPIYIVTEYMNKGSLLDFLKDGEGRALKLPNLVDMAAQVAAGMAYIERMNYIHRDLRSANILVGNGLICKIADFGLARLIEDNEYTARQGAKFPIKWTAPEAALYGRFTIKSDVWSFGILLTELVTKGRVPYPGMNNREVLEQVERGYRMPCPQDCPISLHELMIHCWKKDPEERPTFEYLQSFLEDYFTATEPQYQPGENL
Sequence of Calcium/calmodulin-dependent protein kinase type II subunit gamma (Homo sapiens) (Q13555 whole entry): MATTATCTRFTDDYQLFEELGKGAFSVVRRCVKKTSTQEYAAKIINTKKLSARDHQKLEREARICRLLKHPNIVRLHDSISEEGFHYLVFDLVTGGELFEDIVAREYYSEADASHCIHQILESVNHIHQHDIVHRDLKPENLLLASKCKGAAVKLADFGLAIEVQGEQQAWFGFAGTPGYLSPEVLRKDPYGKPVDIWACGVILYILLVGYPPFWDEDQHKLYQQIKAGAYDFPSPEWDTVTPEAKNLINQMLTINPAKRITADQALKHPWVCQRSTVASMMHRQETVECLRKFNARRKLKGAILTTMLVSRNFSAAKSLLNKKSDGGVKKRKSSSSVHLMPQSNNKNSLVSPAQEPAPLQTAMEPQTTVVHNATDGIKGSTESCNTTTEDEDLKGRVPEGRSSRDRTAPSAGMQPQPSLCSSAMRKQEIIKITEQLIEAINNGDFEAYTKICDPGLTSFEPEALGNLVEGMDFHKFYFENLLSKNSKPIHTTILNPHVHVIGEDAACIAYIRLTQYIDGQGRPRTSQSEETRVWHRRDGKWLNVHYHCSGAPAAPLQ

SMILES: CN1Cc2nccc(-c3cn(C)nc3-c3ccc(F)cc3)c2C1=O
- % of inhibition [1]: 65%
- % of inhibition [2]: 2%

SMILES: O=C(NOC[C@H](O)CO)c1ccc(F)c(F)c1Nc1ccc(I)cc1F
- % of control [3]: 100%

SMILES: CC[C@@H](Nc1c(C#N)c(-c2ccc(-c3cccc(C)c3F)cc2)nc2cnccc12)C(=O)O [BAY-091]
- % of inhibition [4]: 23.5%

SMILES: Cc1cc(CN)cc(C)c1-c1ncn(C)c1-c1cncn1C
- dTM [5]: -1.74 K

SMILES: CC[C@@H]1[C@H](F)C(=O)N[C@@H]1COc1nccc2cc(C(N)=O)c(OC)cc12 [ZIMLOVISERTIB]
- % of inhibition [6]: 51.3%

SMILES: COCC(=O)NC/C=C/c1ccc2ncnc(Nc3ccc(Oc4ccc(C)nc4)c(C)c3)c2c1 [CP-724714]
- % of control [7]: 95%

SMILES: Cc1cnc(Nc2ccc(F)cc2Cl)nc1-c1c[nH]c(C(=O)N[C@H](CO)c2cccc(Cl)c2)c1
- % of inhibition [8]: 3%

SMILES: C=CC(=O)Nc1cc(-n2c(=O)ccc3cnc4ccc(-c5ccc(NS(C)(=O)=O)cc5)cc4c32)ccc1C
- % of control ([9]; at 1 µM): 45%
- % of control ([9]; at 10 µM): 0%

SMILES: O[C@H]1CC[C@H](Nc2ncc3nc(Nc4c(F)cc(F)cc4F)n([C@H]4CCOC4)c3n2)CC1
- % of control [10]: 52%

SMILES: N#Cc1cccc(-c2c[nH]c3ncnc(N4CCOCC4)c23)c1
- % of control (Ephrin type-A receptor 4): 100%

SMILES: Cc1ccc(-c2ccc3c(ccc4sc5c(c43)NC[C@@H](C)NC5=O)n2)cn1
- % of inhibition [11]: 24%

SMILES: CN(C)CCOc1ccc(-c2nc(-c3ccncc3)c(-c3ccc4c(c3)CC/C4=N\O)[nH]2)cc1
- % of control [12]: 97%

SMILES: CNC(=O)Nc1ccc(-c2nc(N3CC4CCC(C3)O4)c3cnn(C4CCC5(CC4)OCCO5)c3n2)cc1
- % of control [13]: 87%

SMILES: Cc1cc(C)cc([C@@H]2c3cc(C)ccc3NC(=O)CN2C(=O)c2ccc(Br)s2)c1
- % of activity ([14]; at 1 µM): 100%
- % of activity ([14]; at 10 µM): 101%
